Assays:
Type in all cases: cell-based
[1] = test system: human dermal fibroblasts CCC-ESF-1; assay: Anti-fibrosis activity test: inhibition of proliferation of human dermal fibroblasts CCC-ESF-1 (CCK-8); conditions: Fibroblast; human dermal fibroblasts CCC-ESF-1, CCK-8, 48 hours
Method in brief: (§1)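 A CCK-8 proliferation assay was run: cells at 2×10^4 cells/mL, adherent for 24 h, then incubated 48 h at 37° C with compound dilutions. A450 was recorded 2 h after CCK-8 addition and converted to percent inhibition versus blank for IC50 determination.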

[2] = test system: human hepatic stellate cells LX-2; assay: Anti-fibrosis activity test: inhibition of proliferation of human hepatic stellate cells LX-2 (CCK-8); conditions: Homo sapiens, 48 h, human hepatic stellate cells LX-2, CCK-8, 48 hours
Method in brief: as §1

[3] = test system: cardiac fibroblast RAT-iCell-C002; assay: Anti-fibrosis activity test: inhibition of proliferation of cardiac fibroblast RAT-iCell-C002 (CCK-8); conditions: Cardiac fibroblast, 48 h, cardiac fibroblast RAT-iCell-C002, CCK-8, 48 hours
Method in brief: as §1

[4] = test system: human lung fibroblasts HFL1; assay: Anti-fibrosis activity test: inhibition of proliferation of human lung fibroblasts HFL1 (CCK-8); conditions: Homo sapiens, HFL1, 48 h, human lung fibroblasts HFL1, CCK-8, 48 hours
Method in brief: as §1

[5] = test system: human fibrosarcoma cells HT-1080; assay: Anti-fibrosis activity test: inhibition of proliferation of human fibrosarcoma cells HT-1080 (CCK-8); conditions: Homo sapiens, HT-1080, 48 h, human fibrosarcoma cells HT-1080, CCK-8, 48 hours
Method in brief: as §1

[6] = test system: mouse macrophages (RAW264.7); assay: Lipopolysaccharide-induced NO secretion in macrophages (Griess); conditions: Mus musculus, RAW264.7, 24 h, RAW264.7, LPS 1 μg/ml, a/b isomers given as first/second symbol, read-out: IC50 (μM), inhibition of lipopolysaccharide-induced NO secretion in macrophages
Procedure: The effects of the compounds of the present application on the lipopolysaccharide-induced NO secretion in macrophage was tested Principle: Anti-inflammatory drug activity screening is to detect the inhibitory effect of compounds on NO production in the mouse macrophages (RAW264.7). When immune cells are stimulated by microbial endotoxin, inflammatory mediators, etc., a large amount of induced NO synthase (iNOS) is produced, and thus NO is generated for immune response. Accordingly, the inhibition of NO production can serve as a direct indicator of the anti-inflammatory activity of the compound. The activity of the compound to inhibit NO production at the cellular level is directly evaluated in the abovementioned test model, thereby reflecting the anti-inflammatory activity of the compound. In this experiment, the content of NO in the medium was detected by Gris kit (Molecular probes, G-7921). Macrophages (Raw264.7) were cultured in DMEM medium containing 10% fetal bovine serum, with the cell concentration adjusted. The cells were seeded in 24-well cell culture plates, cultured in an incubator, and the test samples in different concentrations were added every other day. The blank medium was used as a blank control, and commercially available indomethacin and resveratrol were employed as positive controls. After the addition of lipopolysaccharide (LPS, 1 μg/ml), incubation was performed for 24 hours. Then the supernatant culture solution was taken, to […] reagent was added, and the absorbance value was measured by a microplate reader at 548 nm. Inhibition rate=([…])×100%.

BHK-21 cells = assay: Anti-fibrosis activity test: inhibition of BHK-21 cell proliferation (CCK-8); conditions: Mesocricetus auratus, BHK-21, 48 h, CCK-8, 48 hours after administration
Method in brief: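 Cells seeded at 2×10^4 cells/mL, allowed to adhere 24 hours, then exposed to graded compound concentrations in triplicate for 48 hours at 37° C, 5% CO2. CCK-8 added for 2 hours, absorbance read at 450 nm; inhibition versus blank control used to derive IC50. Pirfenidone served as positive control.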

[7] = test system: human embryonic lung fibroblast IMR-90; assay: Anti-fibrosis activity test: inhibition of proliferation of human embryonic lung fibroblast IMR-90 (CCK-8); conditions: human embryonic lung fibroblast IMR-90, CCK-8, 48 hours
Method in brief: as §1

IC50 [5] [mM]	IC50 [6] [µM]	Compound	IC50 [1] [mM]	IC50 [2] [mM]	IC50 [3] [mM]	IC50 [4] [mM]	IC50 (BHK-21 cells) [mM]	IC50 [7] [mM]
0.05 to 5	1 to 10	O=C1c2c(nc3ccc(F)cc3c2OCCO)-c2cccn21 [Compound 114b, 7-fluoro-9-(2-hydroxyethoxy)-10H-pyrrolizino[1,2-b]quinolin-10-one]	0.05 to 5	0.05 to 5	0.05 to 5	0.05 to 5	0.05 to 5	0.05 to 5
0.05 to 5	1 to 10	O=C1c2c(nc3ccc(F)cc3c2Oc2ccc(Cl)cc2)-c2cccn21 [Compound 133b, 9-(4-chlorophenoxy)-7-fluoro-10H-pyrrolizino[1,2-b]quinolin-10-one]	0.05 to 5	0.05 to 5	0.05 to 5	0.05 to 5	0.05 to 5	0.05 to 5
0.05 to 5	1 to 10	O=C1c2c(nc3ccc(F)cc3c2OC2CC2)-c2cccn21 [Compound 144b, 9-cyclopropoxy-7-fluoro-10H-pyrrolizino[1,2-b]quinolin-10-one]	0.05 to 5	< 0.05	0.05 to 5	0.05 to 5	0.05 to 5	0.05 to 5
0.05 to 5	1 to 10	O=C(O)COc1c2c(nc3ccc(F)cc13)-c1cccn1C2=O [Compound 153b, 2-((7-fluoro-10-oxo-10H-pyrrolizino[1,2-b]quinolin-9-yl)oxy)acetic acid]	0.05 to 5	0.05 to 5	0.05 to 5	0.05 to 5	0.05 to 5	0.05 to 5
0.05 to 5	0.1 to 1	O=C1c2c(nc3ccc(F)cc3c2O)-c2cccn21 [Compound 156b, 7-fluoro-9-hydroxy-10H-pyrrolizino[1,2-b]quinolin-10-one]	0.05 to 5	0.05 to 5	0.05 to 5	< 0.05	0.05 to 5	0.05 to 5
0.05 to 5	1 to 10	O=C1c2c([nH]c3ccc(Cl)cc3c2=O)-c2cccn21 [Compound 180a, 7-Chloro-9H-pyrrolizino[1,2-b]quinoline-9,10(4H)-dione]	0.05 to 5	0.05 to 5	0.05 to 5	0.05 to 5	20 to 100	0.05 to 5
0.05 to 5	1 to 10	O=C1c2c(nc3ccc(Cl)cc3c2O)-c2cccn21 [Compound 180b, 7-chloro-9-hydroxy-10H-pyrrolizino[1,2-b]quinolin-10-one]	0.05 to 5	0.05 to 5	0.05 to 5	0.05 to 5	0.05 to 5	0.05 to 5

More lines, now with the values behind:

Compound	IC50 [5] [mM]	IC50 [6] [µM]	IC50 [1] [mM]	IC50 [2] [mM]	IC50 [3] [mM]	IC50 [4] [mM]	IC50 (BHK-21 cells) [mM]	IC50 [7] [mM]
O=C1c2cc(F)ccc2N(c2ccc(Cl)cc2)C2c3cccn3C(=O)C12 (centres unmarked) [Compound 133a, 4-(4-Chlorophenyl)-7-fluoro-3b,9a-dihydro-9H-pyrrolizino[1,2-b]quinoline-9,10(4H)-dione]	0.05 to 5	10 to 50	0.05 to 5	0.05 to 5	0.05 to 5	0.05 to 5	0.05 to 5	5 to 20
O=C1c2c(n(C3CC3)c3ccc(F)cc3c2=O)-c2cccn21 [Compound 144a, 4-Cyclopropyl-7-fluoro-9H-pyrrolizino[1,2-b]quinoline-9,10(4H)-dione]	0.05 to 5	1 to 10	0.05 to 5	< 0.05	0.05 to 5	0.05 to 5	0.05 to 5	0.05 to 5
O=C1c2c(n(C(=O)c3ccco3)c3ccc(F)cc3c2=O)-c2cccn21 [Compound 150a, 7-Fluoro-4-(furan-2-carbonyl)-9H-pyrrolizino[1,2-b]quinoline-9,10(4H)-dione]	0.05 to 5	1 to 10	0.05 to 5	0.05 to 5	0.05 to 5	0.05 to 5	0.05 to 5	< 0.05
O=C(Oc1c2c(nc3ccc(F)cc13)-c1cccn1C2=O)c1ccco1 [Compound 150b, 7-fluoro-10-oxo-10H-pyrrolizino[1,2-b]quinolin-9-yl furan-2-carboxylate]	0.05 to 5	1 to 10	0.05 to 5	< 0.05	0.05 to 5	0.05 to 5	0.05 to 5	0.05 to 5
O=C(O)Cn1c2c(c(=O)c3cc(F)ccc31)C(=O)n1cccc1-2 [Compound 153a, 2-(7-Fluoro-9,10-dioxo-9H-pyrrolizino[1,2-b]quinolin-4(10H)-yl)acetic acid]	0.05 to 5	1 to 10	0.05 to 5	< 0.05	0.05 to 5	0.05 to 5	< 0.05	0.05 to 5
O=C1c2c([nH]c3ccc(F)cc3c2=O)-c2cccn21 [Compound 156a, 7-Fluoro-9H-pyrrolizino[1,2-b]quinoline-9,10(4H)-dione]	0.05 to 5	1 to 10	0.05 to 5	< 0.05	0.05 to 5	< 0.05	0.05 to 5	0.05 to 5
N#Cc1ccc2c(c1)c(=O)c1c(n2-c2ccc(F)cc2)-c2cccn2C1=O [Compound 199a, 4-(4-Fluorophenyl)-9,10-dioxo-4,10-dihydro-9H-pyrrolizino[1,2-b]quinoline-7-carbonitrile]	0.05 to 5	1 to 10	0.05 to 5	0.05 to 5	0.05 to 5	0.05 to 5	< 0.05	0.05 to 5
N#Cc1ccc2nc3c(c(Oc4ccc(F)cc4)c2c1)C(=O)n1cccc1-3 [Compound 199b, 9-(4-fluorophenoxy)-10-oxo-10H-pyrrolizino[1,2-b]quinoline-7-carbonitrile]	0.05 to 5	1 to 10	0.05 to 5	0.05 to 5	0.05 to 5	0.05 to 5	0.05 to 5	0.05 to 5
N#Cc1ccc2c(c1)c(=O)c1c(n2-c2ccc(Cl)cc2)-c2cccn2C1=O [Compound 210a, 4-(4-Chlorophenyl)-9,10-dioxo-4,10-dihydro-9H-pyrrolizino[1,2-b]quinoline-7-carbonitrile]	0.05 to 5	1 to 10	0.05 to 5	0.05 to 5	0.05 to 5	0.05 to 5	0.05 to 5	0.05 to 5
N#Cc1ccc2nc3c(c(Oc4ccc(Cl)cc4)c2c1)C(=O)n1cccc1-3 [Compound 210b, 9-(4-chlorophenoxy)-10-oxo-10H-pyrrolizino[1,2-b]quinoline-7-carbonitrile]	0.05 to 5	1 to 10	0.05 to 5	0.05 to 5	0.05 to 5	0.05 to 5	0.05 to 5	0.05 to 5
O=C1c2c(n(-c3ccc(F)cc3)c3ccc(C(F)(F)F)cc3c2=O)-c2cccn21 [Compound 259a, 4-(4-Fluorophenyl)-7-(trifluoromethyl)-9H-pyrrolizino[1,2-b]quinoline-9,10(4H)-dione]	0.05 to 5	1 to 10	5 to 20	0.05 to 5	0.05 to 5	0.05 to 5	0.05 to 5	0.05 to 5
O=C1c2c(nc3ccc(C(F)(F)F)cc3c2Oc2ccc(F)cc2)-c2cccn21 [Compound 259b, 9-(4-fluorophenoxy)-7-(trifluoromethyl)-10H-pyrrolizino[1,2-b]quinolin-10-one]	0.05 to 5	1 to 10	5 to 20	0.05 to 5	0.05 to 5	0.05 to 5	0.05 to 5	< 0.05
